Laboratory results from patent publication US10927107B2, “Phenyl [a]indole[2,3-g]quinolizine compounds, preparation method therefor, pharmaceutical composition, and applications thereof” (Shanghai Institute of Materia Medica, Chinese Academy of …, priority 2016, dated 2021).
Read-outs that look alike come from different tables or passages of the source. Values belong to the molecule of their own block, whether it stands above or below them.

Assays:
HepG2 cells = assay: In vitro lipid-lowering activity: DiI-LDL uptake in HepG2 cells; assay type: cell-based; details: Homo sapiens, test compound 5 uM, 24 h, DiI-LDL 20 ug/ml, 3 h, FLU of sample group/FLU of blank group x100%, read-out: LDL uptake rate
Protocol: HepG2 cells were inoculated in 24-well plates, cultured in DMEM containing 10% FBS for 24 h or 48 h, and then transferred to DMEM containing 2% defatted serum and cultivated for 24 h. The old culture solution was discarded and replaced with new 2% defatted serum DMEM, and a test compound (the working concentration of which is 5 uM, triplicate for each sample) was added and incubated for 24 h. The old culture solution was abandoned and DMEM containing DiI-LDL (20 ug/ml) was added (300 ul/per 24 wells), incubated for 3 h. DMEM containing DiI-LDL was discarded, and cells were rinsed twice with PBS containing 0.4% BSA, and 3 times with PBS to remove excess DiI-LDL. Isopropanol was added (500 ul/per well of a 24-well plate), and was kept in darkness. After shaken for 20 minutes, 200 ul of supernatant was sucked to a black fluorescent plate, and fluorescence intensity (FLU) was detected at excitation light 520 nm and emission light 578 nm. The experimental results were calculated: LDL uptake rate=(FLU value of sample group to be tested/FLU value of blank group)×100%.

[1] = test system: Syrian golden hamsters (high-fat diet, hyperlipidemia model); assay: In vivo lipid-lowering activity in high-fat diet golden hamsters; design: species or system Syrian golden hamster; details: for CHOL / HDL-C / LDL-C / TG: high-fat diet, serum; for contents of cholesterol (CHOL), triglyceride (TG) and low density lipoprotein (LDL-C) in the blood: hyperlipidemia model
Protocol: After adaptively feeding Syrian golden hamsters (male, 80-100 g) for a week, all hamsters were fed with high-fat diet. Two weeks later, blood was collected from the orbital venous plexus, serum was separated, and levels of total cholesterol (TC), triglyceride (TG), high-density lipoprotein (HDL-C) and low-density lipoprotein (LDL-C) in serum were measured. They were evenly grouped according to blood lipid levels into […]: model control group, A1 intragastric administration group, A1 intraperitoneal administration group, A5 intragastric administration group, A5 intraperitoneal administration group, A55 intragastric administration group, A55 intraperitoneal administration group, B5 intragastric administration group, B5 intraperitoneal administration group, and the animals in each group were continued to be administered with high fat diet. […] […] Blood lipid levels and body weights were measured every 10 days. After three weeks, the animals were sacrificed and the liver was stored in a −80° C. refrigerator.

Rat pharmacokinetics = assay type: in vivo; design: AUC(0-t) / AUC(0-inf): concentration or dose not given beside the values; details: plasma; for AUC(0-inf): read-out: AUCINF—obs; for clearance: read-out: CL—obs (converted); for MRT inf: read-out: MRTINF—obs; for Vd: read-out: Vss—obs
Protocol: (§1) A1 10 μL of a plasma sample was taken in a centrifuge tube and 100 μL of methanol:acetonitrile (1:1, v/v) was added, vortexed for 1 min, centrifugated (14000 rpm) for 5 min, and 50 μL supernatant was taken, mixed with equal volume of water, and analysised after vortex mixing. The linear range of A1 is: 0.1-300 ng/mL for oral administration and 1-3000 ng/mL for intravenous injection.
as §1, with “A55” for “A1”, “0.3-3000” for “1-3000”

[2] = biological target: T1, α1A-adrenergic receptor (α1A-AR) (Homo sapiens, UniProt P35348); assay: Antagonistic activity on α1A-AR: calcium fluorescence in HEK293 cells stimulated with phenylephrine; assay type: cell-based
T1 construct: expressed in transfected cells; host or cells: HEK293
T1 sequence (P35348 1-466): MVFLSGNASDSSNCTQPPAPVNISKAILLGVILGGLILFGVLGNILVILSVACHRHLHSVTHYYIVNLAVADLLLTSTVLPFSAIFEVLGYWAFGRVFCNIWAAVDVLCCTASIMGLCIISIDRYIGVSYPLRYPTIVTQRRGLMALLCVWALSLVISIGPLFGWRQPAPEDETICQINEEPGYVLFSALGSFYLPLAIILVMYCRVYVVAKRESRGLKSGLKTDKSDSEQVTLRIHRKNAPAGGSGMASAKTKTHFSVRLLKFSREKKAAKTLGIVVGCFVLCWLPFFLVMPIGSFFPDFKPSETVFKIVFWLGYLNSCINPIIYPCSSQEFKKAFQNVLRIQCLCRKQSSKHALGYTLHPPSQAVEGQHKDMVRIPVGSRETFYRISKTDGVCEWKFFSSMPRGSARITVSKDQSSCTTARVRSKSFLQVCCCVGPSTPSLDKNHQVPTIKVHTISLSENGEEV
Protocol: HEK293 cells stably expressing α1A-adrenergic receptor (α1A-AR) and G protein […] were seeded in 96-well plates. After 24 hours of culture, the medium was removed, and 40 μL of Hank's balanced salt solution (HBSS: containing 5.4 mM KCl, 0.3 mM Na2HPO4, 0.4 mM KH2PO4, 4.2 mM NaHCO3, 1.3 mM CaCl2, 0.5 mM MgCl2, 0.6 mM MgSO4, 137 mM NaCl, 5.6 mM D-glucose and 250 μM sulfinpyridone, pH 7.4) containing 2 μM of MFluo-4AM was added to each well, and incubated for 45 minutes in an incubator. The dye was aspirated and 50 μL of HBSS containing a test compound or 1% DMSO (negative control) was added and incubated for 10 minutes at room temperature, and then read with Flex Station 3 microplate reader. At the specified time point, 25 μL of agonist phenylephrine (final concentration 30 nM) will be automatically added by the detector into the reaction system, and simultaneously stimulated with 485 nm light, and the change in intensity of fluorescence caused by the change in the intracellular calcium ion concentration was detected at 525 nm. […] The response rate of different doses of the same drug was analyzed by GraphPad Prism software to obtain a dose-response curve and the IC50 value was measured. Each experiment was performed in […].

[3] = abdominal (intraperitoneal) 30 mg/kg once a day for three weeks
[4] = oral (intragastric) 30 mg/kg once a day for three weeks
[5] = HEK293 cells expressing α1A-AR, agonist phenylephrine 30 nM, calcium fluorescence, read-out: α1A-AR/IC50

Compound: COc1ccc2c(c1)c1c(n2CO)CN2CCc3cc(OC)c(OCc4ccccc4)cc3C2C1 (centres unmarked) [Example A1, (2-(Benzyloxy)-3,12-dimethoxy-5,6,14,14a-tetrahydroindolo[3′,2′:4,5]pyridine[2,1-a]isoquinoline-9(8H)-yl)methanol]
- activity at 5 µM (HepG2 cells): 148%
- CHOL [1, 3]: 9.75 mmol/L
- HDL-C [1, 3]: 1.63 mmol/L
- LDL-C [1, 3]: 5.25 mmol/L
- TG [1, 3]: 8.16 mmol/L
- CHOL [1, 4]: 27.93 mmol/L
- HDL-C [1, 4]: 2.56 mmol/L
- LDL-C [1, 4]: 13.64 mmol/L
- TG [1, 4]: 28.61 mmol/L
- contents of cholesterol (CHOL), triglyceride (TG) and low density lipoprotein (LDL-C) in the blood [1]: significantly reduced
- AUC(0-t) (Rat pharmacokinetics; iv): 1910 ng·h/mL
- Cmax (Rat pharmacokinetics; iv): 1110 ng/mL
- Tmax (Rat pharmacokinetics; iv): 0.083 h
- half-life (Rat pharmacokinetics; iv): 155 min
- AUC(0-inf) (Rat pharmacokinetics; iv): 1980 ng·h/mL
- clearance (Rat pharmacokinetics; iv): 84.2 mL/min/kg
- MRT inf (Rat pharmacokinetics; iv): 3.3 h
- Vd (Rat pharmacokinetics; iv): 16.6 L/kg
- AUC(0-t) (Rat pharmacokinetics; po): 776 ng·h/mL
- Cmax (Rat pharmacokinetics; po): 159 ng/mL
- Tmax (Rat pharmacokinetics; po): 6 h
- bioavailability (Rat pharmacokinetics; po): 20.3%

Compound: COc1ccc2c(c1)c1c(n2CO)CN2CCc3cc(OC)c(OCc4ccc(F)cc4)cc3C2C1 (centres unmarked) [Example A5, (2-((4-fluorobenzyl)oxy)-3,12-dimethoxy-5,6,14,14a-tetrahydroindolo[3′,2′:4,5]pyridine[2,1-a]isoquinoline-9(8H)-yl)methanol]
- activity at 5 µM (HepG2 cells): 156%
- CHOL [1, 3]: 11.36 mmol/L
- HDL-C [1, 3]: 1.77 mmol/L
- LDL-C [1, 3]: 6.16 mmol/L
- TG [1, 3]: 13.26 mmol/L
- CHOL [1, 4]: 15.32 mmol/L
- HDL-C [1, 4]: 4.01 mmol/L
- LDL-C [1, 4]: 7.44 mmol/L
- TG [1, 4]: 15.46 mmol/L
- contents of cholesterol (CHOL), triglyceride (TG) and low density lipoprotein (LDL-C) in the blood [1]: significantly reduced

Compound: COc1ccc2c(c1)c1c(n2CO)CN2CCc3cc(OCc4ccccc4)c(OC)cc3C2C1 (centres unmarked) [Example A55, (3-(Benzyloxy)-2,12-dimethoxy-5,6,14,14a-tetrahydroindolo[3′,2′:4,5]pyridine[2,1-a]isoquinoline-9(8H)-yl)methanol]
- activity at 5 µM (HepG2 cells): 194%
- CHOL [1, 3]: 17.86 mmol/L
- HDL-C [1, 3]: 2.98 mmol/L
- LDL-C [1, 3]: 9.39 mmol/L
- TG [1, 3]: 19.77 mmol/L
- CHOL [1, 4]: 11.81 mmol/L
- HDL-C [1, 4]: 3.88 mmol/L
- LDL-C [1, 4]: 5.56 mmol/L
- TG [1, 4]: 6.74 mmol/L
- contents of cholesterol (CHOL), triglyceride (TG) and low density lipoprotein (LDL-C) in the blood [1]: significantly reduced
- AUC(0-t) (Rat pharmacokinetics; iv): 2720 ng·h/mL
- Cmax (Rat pharmacokinetics; iv): 2740 ng/mL
- Tmax (Rat pharmacokinetics; iv): 0.083 h
- half-life (Rat pharmacokinetics; iv): 113 min
- AUC(0-inf) (Rat pharmacokinetics; iv): 2730 ng·h/mL
- clearance (Rat pharmacokinetics; iv): 61 mL/min/kg
- MRT inf (Rat pharmacokinetics; iv): 1.7 h
- Vd (Rat pharmacokinetics; iv): 6.41 L/kg
- AUC(0-t) (Rat pharmacokinetics; po): 334 ng·h/mL
- Cmax (Rat pharmacokinetics; po): 62 ng/mL
- Tmax (Rat pharmacokinetics; po): 4 h
- bioavailability (Rat pharmacokinetics; po): 6.2%
- half-life (Rat pharmacokinetics; po): 42.6 min
- AUC(0-inf) (Rat pharmacokinetics; po): 335 ng·h/mL
- MRT inf (Rat pharmacokinetics; po): 4.8 h

Compound: COc1ccc2c(c1)c1c(n2CO)CN2CCc3cc(OCc4ccc(C)cc4)c(OC)cc3C2C1 (centres unmarked) [Example A69, (2,12-Dimethoxy-3-((4-methylbenzyl)oxy)-5,6,14,14a-tetrahydroindolo[3′,2′:4,5]pyridine[2,1-a]isoquinoline-9(8H)-yl)methanol]
- activity at 5 µM (HepG2 cells): 140%
- IC50 [2, 5]: > 100 µM

Compound: COc1ccc2[nH]c3c(c2c1)CC1c2cc(OCc4ccccc4F)c(OC)cc2CCN1C3 (centres unmarked) [Example C9, 2-((2-Fluorobenzyl)oxo)-3,12-dimethoxy-5,6,8,9,14,14a-hexahydroindole[3′,2′:4,5]pyridine[2,1-a]isoquinoline]
- TC ([1]; Dose 30, oral): 36.87 ± 23.13 mmol/L

Compound: COc1ccc2[nH]c3c(c2c1)CC1c2cc(OC)c(OCc4ccc(C)cc4)cc2CCN1C3 (centres unmarked) [Example C59]
- activity at 5 µM (HepG2 cells): 147%
- IC50 [2, 5]: > 100 µM

Compound: COc1cc2c(cc1OCc1cccc(C)c1)CCN1Cc3[nH]c4ccccc4c3CC21 (centres unmarked) [Example C107, 2-methoxy-3-((3-methylbenzyl)oxo)-5,6,8,9,14,14a-hexahydroindolo[3′,2′:4,5]pyridine[2,1-a]isoquinoline]
- activity at 5 µM (HepG2 cells): 69.5%

Compound: CCOc1ccccc1OCCN[C@H](C)Cc1ccc(OC)c(S(N)(=O)=O)c1 [Positive control, Tamsulosin, reference compound]
- activity at 5 µM (HepG2 cells): 138%

Further lines, with some results ahead:

- IC50 [2, 5]: 4.53 µM
Compound: COc1ccc2c(c1)c1c(n2CO)CN2CCc3cc(OCc4cccc(F)c4)c(OC)cc3C2C1 (centres unmarked) [Example A61, (3-((3-fluorobenzyl)oxy)-2,12-dimethoxy-5,6,14,14a-tetrahydroindolo[3′,2′:4,5]pyridine[2,1-a]isoquinoline-9(8H)-yl)methanol]
- activity at 5 µM (HepG2 cells): 165%
- TC ([1]; Dose 30, oral): 37.11 ± 11.19 mmol/L
- TC ([1]; Dose 100, oral): 22.57 ± 6.37 mmol/L

- IC50 [2, 5]: 57.7 µM
Compound: COc1ccc2c(c1)c1c(n2CO)CN2CCc3cc(OCc4ccccc4F)c(OC)cc3C2C1 (centres unmarked) [Example A63, (3-((2-fluorobenzyl)oxy)-2,12-dimethoxy-5,6,14,14a-tetrahydroindolo[3′,2′:4,5]pyridine[2,1-a]isoquinoline-9(8H)-yl)methanol]
- activity at 5 µM (HepG2 cells): 138%

- IC50 [2, 5]: > 100 µM
Compound: COc1ccc2[nH]c3c(c2c1)CC1c2cc(OC)c(OCc4ccccc4)cc2CCN1C3c1ccc(F)cc1 (centres unmarked) [Example B55, 3-(benzyloxy)-8-(4-fluorophenyl)-2,12-dimethoxy-5,6,8,9,14,14a-hexahydroindole[3′,2′:4,5]pyridine[2,1-a]isoquinoline]
- activity at 5 µM (HepG2 cells): 125%

- IC50 [2, 5]: 6.58 µM
- IC50 ([2]; statement in text on Table 2, read-out: antagonistic activity to α1A-AR): < 10 µM
Compound: COc1ccc2[nH]c3c(c2c1)CC1c2cc(OC)c(OCc4ccc(F)cc4)cc2CCN1C3 (centres unmarked) [Example C49, 3-((4-Fluorobenzyl)oxo)-2,12-dimethoxy-5,6,8,9,14,14a-hexahydroindole[3′,2′:4,5]pyridine[2,1-a]isoquinoline]
- activity at 5 µM (HepG2 cells): 194%

- IC50 [2, 5]: 17.5 µM
Compound: COc1ccc2[nH]c3c(c2c1)CC1c2cc(OC)c(OCc4ccccc4F)cc2CCN1C3 (centres unmarked) [Example C53, 3-((2-Fluorobenzyl)oxo)-2,12-dimethoxy-5,6,8,9,14,14a-hexahydroindole[3′,2′:4,5]pyridine[2,1-a]isoquinoline]
- activity at 5 µM (HepG2 cells): 112%
